Some test systems named below: A549 NSCLC; CCRF-CEM leukemia; DMS 114 small cell lung; HOP-62 NSCLC; KM20L2 colon; NCI-H226 lung; SF-539 CNS; RPMI-8226 leukemia; HS 578T breast; MCF7 breast.
Common to all, as to assay: inhibition of tumour cell growth, NCI panel, 48 h

Molecules are shown by their SMILES.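 These data come from cells grown in 96-well plates and exposed to compound for 48 hours at five concentrations. The concentration for 50% growth inhibition is given as GI50. TGI is the concentration that stops growth completely.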

From PubChem BioAssay (NCI) come the findings set out here.

For the compound `NC1=NN(c2ccccc2)C(=O)C1C(=O)CCC(=O)Nc1cccc(C(F)(F)F)c1` (configuration not stated), the TGI in the test on A549 NSCLC, with CCRF-CEM leukemia, with DMS 114 small cell lung, in the test on HOP-62 NSCLC, with KM20L2 colon and in the test on NCI-H226 lung was above 100 µM throughout. Also, the TGI with SF-539 CNS is above 100 µM.

On to `CCOC(=O)CN=c1nc(SC)sc2c(C(=O)OCC)nc(Sc3ccccc3)n12`, for which the TGI in the test with CCRF-CEM leukemia, in the test on DMS 114 small cell lung, with HOP-62 NSCLC, with KM20L2 colon, in the test with NCI-H226 lung and in the test on RPMI-8226 leukemia was above 100 µM throughout.

For `CCOC1=NC(=O)CC(c2ccccc2)S1` (configuration not stated), the TGI in the test with A549 NSCLC, in the test on CCRF-CEM leukemia, in the test with KM20L2 colon, with NCI-H226 lung, in the test with RPMI-8226 leukemia and in the test on SF-539 CNS was above 100 µM each time.

On to `Cc1cccc(NC(=O)C(=O)Cc2nc3ccccc3[nH]c2=O)c1C`, for which the TGI in the test on A549 NSCLC, in the test on CCRF-CEM leukemia, in the test with DMS 114 small cell lung, in the test with HOP-62 NSCLC, in the test with KM20L2 colon and in the test on NCI-H226 lung was above 100 µM in each case. The TGI in the test with SF-539 CNS is above 100 µM.

As for `O=C(O)CN(c1ccccc1)S(=O)(=O)c1ccccc1[N+](=O)[O-]`, the TGI with A549 NSCLC, in the test with CCRF-CEM leukemia, with KM20L2 colon, in the test with NCI-H226 lung, with RPMI-8226 leukemia and in the test on SF-539 CNS was above 100 µM throughout.

For `CCOC(=O)NC(=O)c1cn(CCOCCOC(=O)NCCCCCCNC(=O)OCCOCCn2cc(C(=O)NC(=O)OCC)c(=O)[nH]c2=O)c(=O)[nH]c1=O`, the TGI with A549 NSCLC, in the test on DMS 114 small cell lung, in the test on HOP-62 NSCLC, with KM20L2 colon, in the test on RPMI-8226 leukemia and in the test with SF-539 CNS was above 100 µM in each case.

As to `Cc1cc(C)nc(NS(=O)(=O)c2ccc(Nc3c4ccccc4nc4c(C(=O)Nc5ccc(S(=O)(=O)Nc6cc(C)on6)cc5)cccc34)cc2)n1`, the TGI in the test on A549 NSCLC was above 100 µM; in the test on DMS 114 small cell lung, 35.3 µM; in the test with HOP-62 NSCLC, 44.2 µM; in the test on KM20L2 colon, 44.4 µM; in the test with NCI-H226 lung, 46.5 µM; with RPMI-8226 leukemia it was 56.3 µM. Besides, the TGI in the test on SF-539 CNS was 34.7 µM.

For the compound `Cc1ccccc1N(CCC#N)C1=NN(C(=O)CC(=O)Nc2ccccc2)C(c2ccccc2)C1` (configuration not stated), the TGI in the test on A549 NSCLC, in the test on CCRF-CEM leukemia, with HOP-62 NSCLC, with KM20L2 colon, in the test on NCI-H226 lung and in the test with RPMI-8226 leukemia was above 100 µM each time. The compound also showed a TGI in the test on SF-539 CNS above 100 µM.

For `COC(=O)C1=NC(=S)NC(c2ccccc2)C1c1nc2ccccc2s1` (configuration not stated), the TGI with A549 NSCLC, in the test on CCRF-CEM leukemia, with DMS 114 small cell lung, with HOP-62 NSCLC, with KM20L2 colon and in the test with NCI-H226 lung was above 100 µM each time. This compound also gave a TGI with SF-539 CNS above 100 µM.

`COc1ccc2c(c1)CCC1C3(CCCC21C)OCCO3` (configuration not stated): the TGI in the test with A549 NSCLC was 69.7 µM; with CCRF-CEM leukemia it was 40.6 µM; in the test with HOP-62 NSCLC, 28.4 µM; in the test with KM20L2 colon it was 39.2 µM; in the test with NCI-H226 lung, 35.7 µM; in the test on RPMI-8226 leukemia, 61.2 µM. For the same compound, in the test with SF-539 CNS, the TGI is 26.3 µM.

`COc1ccc(C(=O)COc2cccc(/C=C3\COc4ccc5ccccc5c4C3=O)c2)cc1`: the GI50 in the test on A549 NSCLC was above 100 µM; in the test with CCRF-CEM leukemia, 1.92 µM; in the test with HOP-62 NSCLC it was 29.7 µM; in the test on HS 578T breast it was 4.93 µM; with MCF7 breast, 2.48 µM; in the test with NCI-H226 lung it was 15.4 µM. For the same compound, the GI50 in the test with RPMI-8226 leukemia was 1.15 µM; in the test with SF-539 CNS, 13.3 µM. Moreover, the TGI was above 100 µM in the test on A549 NSCLC; 6.26 µM in the test on CCRF-CEM leukemia; above 100 µM with HOP-62 NSCLC; above 100 µM in the test with HS 578T breast; above 100 µM with MCF7 breast; above 100 µM in the test on NCI-H226 lung. Further, the TGI in the test on RPMI-8226 leukemia is 3.94 µM; with SF-539 CNS, above 100 µM.

On to `CN(C)CCCn1c2c(c3ccccc3c1=O)C(=O)c1ccccc1-2`, for which the GI50 in the test with A549 NSCLC was 0.65 µM; with CCRF-CEM leukemia, 1.44 µM; in the test on HOP-62 NSCLC it was 1.74 µM; in the test with HS 578T breast, 8.06 µM; in the test with MCF7 breast, 0.554 µM; in the test with NCI-H226 lung, 1.18 µM. Further, the figures for the GI50 in the test with RPMI-8226 leukemia and in the test on SF-539 CNS were 1.4 µM and 1.86 µM, respectively. In addition, the TGI in the test with A549 NSCLC stood at 3.14 µM; in the test with CCRF-CEM leukemia it was 28.9 µM; in the test on HOP-62 NSCLC, 6.61 µM; in the test with HS 578T breast, 38 µM; in the test with MCF7 breast it was 12.2 µM; in the test with NCI-H226 lung, 2.74 µM. The TGI in the test on RPMI-8226 leukemia was found to be 5.79 µM; with SF-539 CNS it was 9.14 µM.

In the case of `CCOC(=O)c1c(CN2CCN(c3ccccc3)CC2)n(-c2ccccc2)c2cc(Br)c(O)cc12`, the GI50 with A549 NSCLC was 3.58 µM; in the test with CCRF-CEM leukemia, 0.0602 µM; with HOP-62 NSCLC, 17.2 µM; in the test with HS 578T breast, 14.4 µM; in the test on MCF7 breast, 4.01 µM; in the test on NCI-H226 lung, 15.4 µM. The GI50 in the test with RPMI-8226 leukemia is 3.61 µM; in the test with SF-539 CNS, 15.5 µM. Moreover, the TGI with A549 NSCLC was above 100 µM; in the test with CCRF-CEM leukemia it was above 100 µM; in the test with HOP-62 NSCLC, 33.4 µM; in the test with HS 578T breast it was above 100 µM; in the test on MCF7 breast, 47.5 µM; with NCI-H226 lung, 30.9 µM. Besides, the TGI in the test with RPMI-8226 leukemia is above 100 µM; with SF-539 CNS, 34.9 µM.

For `COc1cc2oc(-c3ccc(O)cc3)cc(=O)c2c(OC)c1OC`, the TGI in the test on A549 NSCLC, with CCRF-CEM leukemia, in the test with HOP-62 NSCLC, with HS 578T breast, in the test on MCF7 breast and with NCI-H226 lung was above 100 µM in each case. The TGI with RPMI-8226 leukemia and in the test on SF-539 CNS was above 100 µM in each case.
